Reference: patent publication US20200247808A1, “Heterocyclic Tec-Family Kinase Inhibitors” (GB005, Inc., priority 2015, published 2020)

Columns and labels:
[1] = target: T1, human BTK (Homo sapiens, UniProt Q06187); test: BTK kinase inhibition, KinaseProfiler radiometric protein kinase assay (Eurofins); format: biochemical
T1 construct: purchased Eurofins Pharma Discovery Services UK Limited (contract assay, KinaseProfiler)
Protocol: In vitro potency of selected compound was defined against human BTK, EGFR, and ErbB2 kinases using Kinase Profiler radiometric protein kinase assays performed at Eurofins Pharma Discovery Services UK Limited.
Each kinase is diluted in buffer and all compounds were prepared to 50x final assay concentration in 100% DMSO. This working stock of the compound was added to the assay well as the first component in the reaction, followed by the remaining components as detailed in the assay protocol listed above. The reaction was initiated by the addition of the MgATP mix. […] (specific activity approx. 500 cpm/pmol, concentration as required) and variable test article concentrations. […] The reaction was stopped by the addition of 3% phosphoric acid solution. 10 μL of the reaction is then spotted onto a P30 filtermat and washed three times for 5 minutes in 75 mM phosphoric acid and once in methanol prior to drying and scintillation counting. In addition positive control wells contain all components of the reaction, except the compound of interest; however, DMSO (at a final concentration of 2%) were included in these wells to control for solvent effects as well as blank wells contain all components of the reaction, with a reference inhibitor replacing the compound of interest. This abolishes kinase activity and establishes the base-line (0% kinase activity remaining). The potency of each compound was reported by estimating the EC50.

[2] = system: splenocytes; test: Splenic cell proliferation assay (anti-IgM stimulated, Cell Titer-Glo); format: cell-based, mouse (CD1); conditions: Splenocyte; mouse splenocytes, 2.5 μg/ml anti-IgM F(ab')2, 72 h; read-out: Spleen cell EC50
Protocol: Proliferation of splenocytes in response to anti-IgM can be blocked by inhibition of BTK. Splenocytes were obtained from 6 week old male CD1 mice (Charles River Laboratories Inc.). Mouse spleens were manually disrupted in PBS and filtered using a 70um cell strainer followed by ammonium chloride red blood cell lysis. Cells were washed, resuspended in Splenocyte Medium (HyClone RPMI supplemented with 10% heat-inactivated FBS, 0.5X non-essential amino acids, 10 mM HEPES, 50 μM beta mercaptoethanol) and incubated at 37° C., 5% CO2 for 2h to remove adherent cells. Suspension cells were seeded in 96 well plates at 50,000 cells per well and incubated at 37° C., 5% CO2 for 1h. Splenocytes were pre-treated in triplicate with 10,000 nM curves of Formula 1 compounds for 1h, followed by stimulation of cell proliferation with 2.5 μg/ml anti-IgM
F(ab′)2 (Jackson ImmunoResearch) for 72 h. Cell proliferation was measured by Cell Titer-Glo Luminescent Assay (Promega). EC50 values (50% proliferation in the presence of compound as compared to vehicle treated controls) were calculated from dose response compound curves using GraphPad Prism Software.

[3] = system: TMD-8 human activated B cell diffuse large B cell lymphoma cells; test: TMD-8 survival assay (Cell Titer-Glo); format: cell-based; conditions: TMD8, TMD-8 cells, 72 h
Protocol: TMD-8 human activated B cell diffuse large B cell lymphoma cells were seeded in 96-well plates at a density of 20,000 cells/well in HyClone RPMI supplemented with 10% FBS (Fisher)/1% Penicillin/Streptomycin (HyClone) and incubated at 37° C., 5% CO2. Cells were treated in triplicate with 1,000 nM or 100 nM curves of compounds for 72h. Cell survival was measured by Cell Titer-Glo Luminescent Assay (Promega). EC50 values (50% proliferation in the presence of compound as compared to vehicle treated controls) were calculated from dose response compound curves using GraphPad Prism Software.

T1 sequence (Q06187 whole entry): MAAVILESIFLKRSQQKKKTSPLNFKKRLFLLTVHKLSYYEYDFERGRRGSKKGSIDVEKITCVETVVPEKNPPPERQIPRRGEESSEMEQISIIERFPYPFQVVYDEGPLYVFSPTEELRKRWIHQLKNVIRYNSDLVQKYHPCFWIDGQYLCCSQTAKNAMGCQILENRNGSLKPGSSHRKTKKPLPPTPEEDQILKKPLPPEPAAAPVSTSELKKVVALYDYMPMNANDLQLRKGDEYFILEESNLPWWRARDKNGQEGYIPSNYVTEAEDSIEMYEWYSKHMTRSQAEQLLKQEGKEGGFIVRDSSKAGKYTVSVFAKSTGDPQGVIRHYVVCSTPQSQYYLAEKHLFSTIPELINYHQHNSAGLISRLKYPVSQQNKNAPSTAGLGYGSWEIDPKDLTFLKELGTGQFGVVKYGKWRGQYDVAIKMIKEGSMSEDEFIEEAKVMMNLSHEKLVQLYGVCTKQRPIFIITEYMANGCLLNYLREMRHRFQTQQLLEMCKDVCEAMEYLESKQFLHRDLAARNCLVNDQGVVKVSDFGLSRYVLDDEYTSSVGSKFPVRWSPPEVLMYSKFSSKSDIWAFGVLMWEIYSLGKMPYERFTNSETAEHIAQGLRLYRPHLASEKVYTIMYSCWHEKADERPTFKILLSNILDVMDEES

IC50 [1] [nM] | SMILES | EC50 [2] [nM] | EC50 [3] [nM]
3 | CC#CC(=O)N[C@H]1C[C@@H](n2nc(-c3ccc(Oc4ccccc4)cc3)c3c(N)ncnc32)C1 [Compound 1] | 0.2 | 1
3 | C=CC(=O)N[C@H]1C[C@@H](n2nc(-c3ccc(Oc4ccccc4)cc3)c3c(N)ncnc32)C1 [Compound 2] | 0.3 | 1.9
